# From patent US8853230B2, “Inhibitors of JAK” (Portola Pharmaceuticals, Inc., priority 2009, dated 2014)
# Key:
# [1] = tested on: IL4-induced phospho STAT6 formation in Ramos B lymphocytes; experiment: Inhibition of IL4-induced phospho STAT6 formation in Ramos B lymphocytes (flow cytometry); format: cell-based, human; details: Homo sapiens; for inhibition at 0.2 µM: 200 nM compound, read-out: % Inhibition of IL-4 Induced STAT6 Phosphorylation 200 nM; for inhibition at 1 µM: 1 μM compound, read-out: % Inhibition of IL-4 Induced STAT6 Phosphorylation 1 μM
# Summary of the method: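 Human Ramos B cells (0.5 million) pre-incubated 1 h at 37°C/5% CO2 with compound or DMSO, then stimulated with 1 ng/ml IL4 for 10 min. Cells were PFA-fixed, methanol-permeabilized and stained with Alexa-anti-phosphoSTAT6 (Y641); flow cytometry mean fluorescence gave percent inhibition of the IL4 signal.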
# Syk = Syk (Homo sapiens, UniProt P43405); experiment: Syk IC50 (Table 1; method not given); format: biochemical
# JAK1 = molecular target: T1, JAK1 (Homo sapiens, UniProt P23458); experiment: Z'-LYTE kinase assay, JAK1 tyrosine phosphorylation activity; format: biochemical; details: read-out: JAK 1 IC50
# T1 construct: 5 μl of catalytic domain recombinant Kinase enzyme+Tyr peptide substrate (Invitrogen, Calif.); purchased Invitrogen
# T1 sequence (P23458 875-1153 limits assumed): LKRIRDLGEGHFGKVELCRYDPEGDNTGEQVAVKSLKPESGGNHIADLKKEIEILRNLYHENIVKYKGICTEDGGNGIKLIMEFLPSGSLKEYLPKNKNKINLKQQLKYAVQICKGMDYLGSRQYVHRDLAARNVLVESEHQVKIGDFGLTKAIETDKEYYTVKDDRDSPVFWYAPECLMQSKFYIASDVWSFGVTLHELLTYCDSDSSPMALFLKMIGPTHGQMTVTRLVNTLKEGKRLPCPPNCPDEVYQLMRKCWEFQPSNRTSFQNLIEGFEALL
# Summary of the method: (§1)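 FRET-based Z′-LYTE format with recombinant catalytic-domain kinases and Tyr6 peptide substrate; compounds in 1% DMSO final, duplicate wells. Kinase reaction with ATP runs 1 h at room temperature, then protease development 1 h; fluorescence read at ex 400, em 445/520 nm. IC50 from 4-parameter logistic fit of percent phosphorylation versus uninhibited.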
# TYK2 = molecular target: T2, TYK2 (Homo sapiens, UniProt P29597); experiment: Z'-LYTE kinase assay, TYK2 tyrosine phosphorylation activity; format: biochemical
# T2 construct: 5 μl of catalytic domain recombinant Kinase enzyme+Tyr peptide substrate (Invitrogen, Calif.); purchased Invitrogen
# T2 sequence (P29597 897-1176 limits assumed): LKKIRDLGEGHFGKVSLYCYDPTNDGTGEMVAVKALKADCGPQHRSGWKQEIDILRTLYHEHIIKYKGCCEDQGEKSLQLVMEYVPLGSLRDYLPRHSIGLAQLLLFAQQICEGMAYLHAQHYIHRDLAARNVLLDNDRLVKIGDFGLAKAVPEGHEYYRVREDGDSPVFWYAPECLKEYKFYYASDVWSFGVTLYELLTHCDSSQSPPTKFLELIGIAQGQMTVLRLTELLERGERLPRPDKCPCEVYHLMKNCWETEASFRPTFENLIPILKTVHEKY
# Summary of the method: as §1
# JAK2 = molecular target: T3, JAK2 (Homo sapiens, UniProt O60674); experiment: Z'-LYTE kinase assay, JAK2 tyrosine phosphorylation activity; format: biochemical
# T3 construct: 5 μl of catalytic domain recombinant Kinase enzyme+Tyr peptide substrate (Invitrogen, Calif.); purchased Invitrogen
# T3 sequence (O60674 849-1124 limits assumed): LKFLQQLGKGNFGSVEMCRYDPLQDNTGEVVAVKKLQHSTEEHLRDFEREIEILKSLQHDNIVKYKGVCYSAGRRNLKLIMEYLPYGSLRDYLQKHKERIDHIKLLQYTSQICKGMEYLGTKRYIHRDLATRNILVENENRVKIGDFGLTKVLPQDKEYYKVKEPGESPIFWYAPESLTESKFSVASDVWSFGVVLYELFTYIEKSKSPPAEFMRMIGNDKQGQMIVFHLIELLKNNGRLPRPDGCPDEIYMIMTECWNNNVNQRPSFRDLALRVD
# Summary of the method: as §1
# JAK3 = molecular target: T4, JAK3 (Homo sapiens, UniProt P52333); experiment: Z'-LYTE kinase assay, JAK3 tyrosine phosphorylation activity; format: biochemical
# T4 construct: 5 μl of catalytic domain recombinant Kinase enzyme+Tyr peptide substrate (Invitrogen, Calif.); purchased Invitrogen
# T4 sequence (P52333 822-1111 limits assumed): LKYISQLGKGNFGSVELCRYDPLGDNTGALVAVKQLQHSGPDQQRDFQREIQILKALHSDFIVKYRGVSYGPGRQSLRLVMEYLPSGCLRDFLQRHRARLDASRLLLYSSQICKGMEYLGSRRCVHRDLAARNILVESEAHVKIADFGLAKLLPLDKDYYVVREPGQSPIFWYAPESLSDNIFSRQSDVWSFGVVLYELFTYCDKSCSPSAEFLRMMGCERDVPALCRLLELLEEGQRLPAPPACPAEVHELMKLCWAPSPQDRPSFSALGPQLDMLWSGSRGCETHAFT
# Summary of the method: as §1
Compound,IC50 (Syk),IC50 (JAK1),IC50 (TYK2),IC50 (JAK2),IC50 (JAK3),inhibition at 0.2 µM [1],inhibition at 1 µM [1]
"COC(=O)Nc1cc(Nc2ncc(C(N)=O)c(NCc3ccccc3)n2)ccc1Cl [Example 32, methyl 5-(4-(benzylamino)-5-carbamoylpyrimidin-2-ylamino)-2-chlorophenylcarbamate]",> 1000 nM,100 to 1000 nM,10 to 100 nM,100 to 1000 nM,10 to 100 nM,27%,65%
"CC(=O)Nc1cccc(Nc2ncc(C(N)=O)c(N[C@H](CO)c3ccccc3)n2)c1 [Example 93, (S)-2-(3-acetamidophenylamino)-4-(2-hydroxy-1-phenylethylamino)pyrimidine-5-carboxamide]",> 1000 nM,100 to 1000 nM,10 to 100 nM,10 to 100 nM,1 to 10 nM,20%,53%
"CCOC(=O)Nc1cccc(Nc2ncc(C(N)=O)c(NCc3ccccc3)n2)c1 [Example 31, ethyl 3-(4-(benzylamino)-5-carbamoylpyrimidin-2-ylamino)phenylcarbamate]",> 1000 nM,100 to 1000 nM,10 to 100 nM,100 to 1000 nM,1 to 10 nM,13.7%,37%
"CC(=O)Nc1cccc(Nc2ncc(C(N)=O)c(NC3CCOCC3)n2)c1 [Example 75, 2-(3-acetamidophenylamino)-4-(tetrahydro-2H-pyran-4-ylamino)pyrimidine-5-carboxamide]",> 1000 nM,10 to 100 nM,10 to 100 nM,10 to 100 nM,1 to 10 nM,53.3%,90.3%
"CC(C)OC(=O)Nc1cccc(Nc2ncc(C(N)=O)c(NCc3ccccc3)n2)c1 [Example 41, isopropyl 3-(4-(benzylamino)-5-carbamoylpyrimidin-2-ylamino)phenylcarbamate]",> 1000 nM,> 1000 nM,10 to 100 nM,100 to 1000 nM,10 to 100 nM,50.7%,95.3%
"CCOC(=O)Nc1cccc(Nc2ncc(C(N)=O)c(NC3CCCC3)n2)c1 [Example 24, ethyl 3-(5-carbamoyl-4-(cyclopentylamino)pyrimidin-2-ylamino)phenylcarbamate]",100 to 1000 nM,100 to 1000 nM,10 to 100 nM,100 to 1000 nM,10 to 100 nM,24.7%,71.3%
"NC(=O)c1cnc(Nc2cccc(NC(=O)C3CCC3)c2)nc1NC1CCCC1 [Example 20, 2-(3-(cyclobutanecarboxamido)phenylamino)-4-(cyclopentylamino)pyrimidine-5-carboxamide]",100 to 1000 nM,10 to 100 nM,1 to 10 nM,10 to 100 nM,1 to 10 nM,41.3%,89.6%
"NC(=O)Nc1cccc(Nc2ncc(C(N)=O)c(NCc3ccccc3)n2)c1 [Example 38, 4-(benzylamino)-2-(3-ureidophenylamino)pyrimidine-5-carboxamide]",100 to 1000 nM,10 to 100 nM,1 to 10 nM,10 to 100 nM,1 to 10 nM,41.3%,82.7%
"CC[C@H](C)[C@@H](CO)Nc1nc(Nc2cccc(NC(C)=O)c2)ncc1C(N)=O [Example 73, 2-(3-acetamidophenylamino)-4-((2S,3S)-1-hydroxy-3-methylpentan-2-ylamino)pyrimidine-5-carboxamide]",> 1000 nM,10 to 100 nM,1 to 10 nM,10 to 100 nM,1 to 10 nM,17.1%,55.6%
"NC(=O)c1cnc(Nc2cccc(NC(=O)C3CC3)c2)nc1NCc1ccccc1 [Example 26, 4-(benzylamino)-2-(3-(cyclopropanecarboxamido)phenylamino)pyrimidine-5-carboxamide]",> 1000 nM,100 to 1000 nM,1 to 10 nM,10 to 100 nM,1 to 10 nM,7.3%,45.7%
"CC(=O)Nc1cccc(Nc2ncc(C(N)=O)c(NCC3CCCN(C(C)=O)C3)n2)c1 (centres unmarked) [Example 119, 2-(3-acetamidophenylamino)-4-((1-acetylpiperidin-3-yl)methylamino)pyrimidine-5-carboxamide]",100 to 1000 nM,10 to 100 nM,10 to 100 nM,10 to 100 nM,1 to 10 nM,9%,63%
"NC(=O)c1cnc(Nc2cccc(NC(=O)C3CC3)c2)nc1NCC(F)(F)F [Example 5, 2-(3-(cyclopropanecarboxamido)phenylamino)-4-(2,2,2-trifluoroethylamino)pyrimidine-5-carboxamide]",100 to 1000 nM,100 to 1000 nM,10 to 100 nM,100 to 1000 nM,10 to 100 nM,,
"COCC(=O)N(C)c1cccc(Nc2ncc(C(N)=O)c(N[C@H](C)c3ccccc3)n2)c1 [Example 86, (R)-2-(3-(2-methoxy-N-methylacetamido)phenylamino)-4-(1-phenylethylamino)pyrimidine-5-carboxamide]",> 1000 nM,100 to 1000 nM,10 to 100 nM,1 to 10 nM,1 to 10 nM,,
"CC(=O)N(C)c1cccc(Nc2ncc(C(N)=O)c(N[C@H](C)c3ccccc3)n2)c1 [Example 87, (R)-2-(3-(N-methylacetamido)phenylamino)-4-(1-phenylethylamino)pyrimidine-5-carboxamide]",> 1000 nM,100 to 1000 nM,10 to 100 nM,1 to 10 nM,1 to 10 nM,,
"COCC(=O)N(C)c1cccc(Nc2ncc(C(N)=O)c(NC3CCCC3)n2)c1 [Example 89, 4-(cyclopentylamino)-2-(3-(2-methoxy-N-methylacetamido)phenylamino)pyrimidine-5-carboxamide]",> 1000 nM,10 to 100 nM,10 to 100 nM,1 to 10 nM,1 to 10 nM,,

# Second part, led by results:
IC50 (Syk),IC50 (JAK1),IC50 (TYK2),IC50 (JAK2),IC50 (JAK3),Compound,inhibition at 0.2 µM [1],inhibition at 1 µM [1]
> 1000 nM,100 to 1000 nM,100 to 1000 nM,100 to 1000 nM,10 to 100 nM,"CC(=O)Nc1cccc(Nc2ncc(C(N)=O)c(N[C@H](CO)Cc3cnc[nH]3)n2)c1 [Example 60, (S)-2-(3-acetamidophenylamino)-4-(1-hydroxy-3-(1H-imidazol-5-yl)propan-2-ylamino)pyrimidine-5-carboxamide]",12.5%,23%
100 to 1000 nM,10 to 100 nM,10 to 100 nM,10 to 100 nM,1 to 10 nM,"COCC(=O)Nc1cccc(Nc2ncc(C(N)=O)c(NC(C)C)n2)c1 [Example 57, 4-(isopropylamino)-2-(3-(2-methoxyacetamido)phenylamino)pyrimidine-5-carboxamide]",55%,76.5%
> 1000 nM,10 to 100 nM,1 to 10 nM,10 to 100 nM,1 to 10 nM,"COCC(=O)Nc1cccc(Nc2ncc(C(N)=O)c(NCc3ccccc3)n2)c1 [Example 29, 4-(benzylamino)-2-(3-(2-methoxyacetamido)phenylamino)pyrimidine-5-carboxamide]",37.5%,80%
> 1000 nM,10 to 100 nM,1 to 10 nM,10 to 100 nM,1 to 10 nM,"CCC(=O)Nc1cccc(Nc2ncc(C(N)=O)c(NCc3ccccc3)n2)c1 [Example 28, 4-(benzylamino)-2-(3-propionamidophenylamino)pyrimidine-5-carboxamide]",32%,77.7%
> 1000 nM,10 to 100 nM,10 to 100 nM,1 to 10 nM,1 to 10 nM,"CC(=O)N(C)c1cccc(Nc2ncc(C(N)=O)c(NC3CCCC3)n2)c1 [Example 78, 4-(cyclopentylamino)-2-(3-(N-methylacetamido)phenylamino)pyrimidine-5-carboxamide]",,
> 1000 nM,100 to 1000 nM,10 to 100 nM,10 to 100 nM,10 to 100 nM,"CC(=O)Nc1cccc(Nc2ncc(C(N)=O)c(NC[C@H](C)c3ccccc3)n2)c1 [Example 81, (R)-2-(3-acetamidophenylamino)-4-(2-phenylpropylamino)pyrimidine-5-carboxamide]",,
> 1000 nM,10 to 100 nM,1 to 10 nM,10 to 100 nM,1 to 10 nM,"NC(=O)c1cnc(Nc2cccc(NC(=O)N3CCCC3)c2)nc1NC1CCCC1 [Example 37, 4-(cyclopentylamino)-2-(3-(pyrrolidine-1-carboxamido)phenylamino)pyrimidine-5-carboxamide]",,
